According to patent US10464941B2, “Therapeutic compounds” (REGENTS OF THE UNIVERSITY OF MINNESOTA, priority 2015, dated 2019):
Several values for one entry are separate records, joined by “and”; a condition that tells them apart may be missing. Equal entries are not always repeated. Marks after values point to notes of the source that are not given here.

Assays:
HbSS and HbAS mice = experiment: Sickle cell disease mice, paw withdrawal frequency; type: in vivo, Townes transgenic humanized mice; settings: 8.0 μmol/kg i.p.
Experimental: Townes transgenic humanized mice expressing sickle hemoglobin (HbSS/HbAS) and normal human hemoglobin (HbAA) controls (4-12 weeks of age, 20-25 g) were used in this study. Mice were characterized for hyperalgesia by quantifying cutaneous mechanical sensitivity of the hind paw and forelimb grip force. Mechanical sensitivity of the hind paw was evaluated by determining the frequency of withdrawal responses and paw withdrawal threshold. The frequency of paw withdrawal evoked by a standard von Frey monofilament with a bending force of 9.3 mN applied to the plantar surface of the hind paws was determined from 10 trials on each paw. Withdrawal threshold was determined using an electronic von Frey anesthesiometer pressed against the plantar surface with increasing force until withdrawal occurred. To assess deep tissue hyperalgesia, the tensile force of peak forelimb exertion was measured using a computerized grip force meter. To evaluate the analgesic effects of MCC22, paw withdrawal frequency was determined before and at various times after administration of […] i.p.

[1] = tested on: CFA-induced mechanical hyperalgesia mouse model; experiment: Complete Freund's Adjuvant (CFA) mechanical hyperalgesia, electronic von Frey; type: in vivo, mice; settings: i.t.
Experimental: Before injection of CFA baseline withdrawal thresholds (g) were obtained from a mechanical stimulation using an electronic von Frey anesthesiometer (IITC Life Sciences, Woodland Hills, USA) by applying an accurate force on both left and right hind paw. (2,3) The left hindpaws were then injected (intraplantar) with a 50% solution of CFA (10 μg, Sigma-Aldrich) in water while the mice are under isoflurane anesthesia (10). Twenty-four hours later the withdrawal threshold (g) was again measured prior to and after the test compound i.t. at 10, 20, 30 and 60 minutes to determine the peak time and subsequent ED50. % MPE was calculated ((Time-point withdrawal threshold with drug−CFA withdrawal threshold)/(Day 0 withdrawal threshold−CFA withdrawal threshold))*100 (Wade, C. L., et al., PLoS One 2013, 8, e79239/1-e79239/11, 11 pp; Martinov, T., et al., J Vis Exp 2013, e51212; Sorge, R. E., et al., J. Neurosci. 2011, 31, 15450-15454).

control mice = experiment: Radiant heat tail-flick antinociception, control (LPS-untreated) mice; type: in vivo
Source text: Pain is a hallmark of many inflammatory conditions.

LPS-pretreated mice = experiment: animal or person; settings: for LPS pretreated i.c.v./i.t. ratio / LPS pretreated ED50 (CI) i.t.: LPS 1 mg/kg 24 hours i.p.; for LPS pretreated ED50 (CI) i.t.: tail flick
Experimental: Male ICR-CD1 mice (17-25 g; Harlan, Madison, Wis.), C3H mice (15-20 g, National Cancer Institute, Bethesda, Md.) or TLR4 knock-out mice (gift from Dr. Sabita Roy) were housed, 4 to a small box in a temperature- and humidity-controlled environment with unlimited access to food and water. They were maintained on a 12 h light/dark cycle. All experiments were approved by the Institutional Animal Care and Use Committee of the University of Minnesota (Minneapolis, Minn.).
The tail flick assay is used to test for antinociception described by D'Amour and Smith^64 and modified by Dewey et. al.^65 Mice are held gently in one hand with the tail positioned in the apparatus (Tail Flick Analgesia Meter, Columbus Instruments, Columbus, Ohio) for radiant heat stimulus. The tail-flick response is elicited by applying radiant heat to the dorsal side of the tail. The test latency is measured before drug treatment (control) and again after the drug treatment (test) at the peak time of the compound, a 10 s maximum cut-off time is used to prevent damage to the tail. Antinociception is quantified according to the method of Harris and Pierson^66 as the percent maximal possible effect (% MPE) which is calculated as: % MPE=(Test−Control/10−Control)×100
A minimum of three groups of eight to ten mice are used for each dose response curve, and each mouse is used only once.
The compounds were tested for acute tolerance by comparing the ED80-90 dose measured on day 1 to the same dose administered and retested 24 hours later on the same mouse.
Compounds were dissolved in 5% DMSO and diluted to less than 1% DMSO for injection. These compounds were administered in a volume of 5-μl either i.c.v (Haley and McCormick) or intrathecal (i.t.) as described for mice by Hylden and Wilcox^67 in conscious mice. […] Time course studies, including the times 5, 10, 20, 30 and 60 minutes were used to determine the peak antinociception.
Pain is a hallmark of many inflammatory conditions. […] Antinociception was evaluated using the radiant heat-induced tailflick assay. Morphine was employed as a standard opioid agonist under these conditions.

WDR neuron = experiment: Extracellular recordings from dorsal horn neurons, von Frey stimulation; type: in vivo, mice; settings: hind paw, 5 sec, compared with control and vehicle
Experimental: Mice were anesthetized with isoflurane while maintaining core temperature at 37° C. A laminectomy exposed the lumbar spinal cord then mice were secured in a spinal frame. Extracellular recordings from dorsal horn neurons with receptive fields located on the plantar surface of the hind paw were obtained using glass microelectrodes lowered into the spinal cord.
Receptive fields (RFs) of dorsal horn neurons were identified by stroking the skin and applying mild pressure. Neurons were classified functionally as low threshold (LT), wide dynamic range (WDR) and high threshold (HT) using mechanical stimulation of graded intensities. RF areas were mapped using von Frey filaments. The discharge rate of spontaneous activity was recorded for 3 minutes. Mechanical response thresholds were determined and an increasing series of von Frey filaments were applied, each for 5 sec. Action potentials and the time of stimulus application were stored on a computer. Comparisons of discharge rates were made between vehicle and MCC22.

IL-6 = experiment: Proinflammatory cytokine IL-6 ELISA in LPS-stimulated microglia (BV2); type: cell-based, murine
Experimental: Murine primary microglia cell line (BV2) were cultured in DMEM with 10% heat-inactivated fetal bovine serum (FBS), 100 U/ml penicillin, 100 μg/ml streptomycin, 10 μg/ml gentamycin (all from Invitrogen, CA, USA). Cells were harvested on reaching 80% to 90% confluence by treating with 0.25% trypsin containing 1 mM EDTA for 5 minutes at 37° C. Cells (20,000/200 μl) were seeded on flat bottom 96 well plates and treated for 3 hrs with equimolar concentration (200 nM) of MCC22/Minocycline for 3 hrs followed by overnight treatment with LPS (1 μg/ml). At the end of the experiment, IL-6 was estimated by Sandwich ELISA using mouse IL-6 DuoSet kit (R&D Systems, Minneapolis, Minn.) in the culture supernatant.

Question: `Cc1ccc(N(CCCN2CCC(Cc3ccc(C(N)=O)cc3)CC2)C(=O)C2CCN(C(=O)COCC(=O)NCCCCCCCCCCNC(=O)COCC(=O)N[C@H]3CC[C@@]4(O)C5Cc6ccc(O)c7c6[C@@]4(CCN5C)[C@H]3O7)CC2)cc1Cl` [Compound 3e, N-(3-(4-(4-carbamoylbenzyl)piperidin-1-yl)propyl)-N-(3-chloro-4-methylphenyl)-1-(22-(((4aS,7S,7aR,12bS)-4a,9-dihydroxy-3-methyl-2,3,4,4a,5,6,7,7a-octahydro-1H-4,12-methanobenzofuro[3,2-e]isoquinolin-7-yl)amino)-5,18,22-trioxo-3,20-dioxa-6,17-diazadocosan-1-oyl)piperidine-4-carboxamide] was tested. Which “time to reduced hyperalgesia (decrease in paw withdrawal frequency)” value (HbSS and HbAS mice) did it give?
Answer: ≤ 30 min

Question: What about the “ED50 values (95% CI) CFA (mechanical)” value [1] of the same compound?
Answer: 0.019 pmol/mouse

Question: What about the CONTROLS i.c.v./i.t. ratio (control mice; control mice) of the same compound?
Answer: 10.93^e

Question: What about the “percent maximal possible effect at highest dose measured” value (control mice; control mice, i.c.v., 500 pmol/mouse) of the same compound?
Answer: 49.7 ± 14.9%

Question: And the “acute tolerance (ED80 retested 24 hours later)” value (control mice; control mice, i.t.)?
Answer: (23.1-90.8)^b

Question: What about the “CONTROLS ED50 (CI) i.t.” value (control mice; control mice, i.t., tail flick) of the same compound?
Answer: 45.8 pmol/mouse

Question: What about the CONTROLS i.c.v./i.t. ratio (control mice; control mice, listed as MCC22) of the same compound?
Answer: 11

Question: What about the “potency increase over 3c” value (control mice; i.t., LPS-untreated control mice) of the same compound?
Answer: ~4 fold

Question: What about the “FIG. 4 naïve/MCC22 (value with interval)” value (control mice; naïve mice) of the same compound?
Answer: 45.75 (23.05-90.81)

Question: And the “LPS pretreated i.c.v./i.t. ratio” value (LPS-pretreated mice)?
Answer: ~34,000^d

Question: And the “LPS pretreated ED50 (CI) i.t.” value (LPS-pretreated mice; i.t.)?
Answer: 0.0149 pmol/mouse

Question: What about the “LPS pretreated ED50 (CI) i.t.” value (LPS-pretreated mice; i.t., listed as MCC22) of the same compound?
Answer: 0.0146 pmol/mouse

Question: What about the “LPS pretreated i.c.v./i.t. ratio” value (LPS-pretreated mice; listed as MCC22) of the same compound?
Answer: 34,000 and 34,223

Question: What about the “FIG. 4 LPS/MCC22 (value with interval)” value (LPS-pretreated mice; LPS pretreated mice) of the same compound?
Answer: 0.015 (0.01-0.03)

Question: What about the “percent maximal possible effect at highest dose measured” value (LPS-pretreated mice; LPS pretreated, i.c.v., 500 pmol/mouse) of the same compound?
Answer: 41.1 ± 12.9%

Question: And the “potency in TLR4 KO mice” value (LPS-pretreated mice; LPS-pretreated TLR4 KO mice)?
Answer: not reduced

Question: What about the “effect of MK801 on antinociception” value (LPS-pretreated mice; LPS-pretreated mice treated i.t. with NMDA receptor antagonist MK801, then MCC22) of the same compound?
Answer: virtually no effect

Question: What about the “i.t. potency ratio, morphine/MCC22” value (LPS-pretreated mice; LPS-pretreated mice, i.t.) of the same compound?
Answer: 2400

Question: What about the ED50 (LPS-pretreated mice; Mus musculus, ip, read-out: ED50 i.p.) of the same compound?
Answer: 5.6 µmol/kg

Question: What about the “ED50 values (95% CI) LPS (thermal)” value (LPS-pretreated mice; i.t., LPS thermal hyperalgesia model) of the same compound?
Answer: 0.015 pmol/mouse

Question: What about the “potency increase over 19-atom spacer homologue 3c” value (LPS-pretreated mice; i.t., LPS-pretreated mice) of the same compound?
Answer: > 700 fold

Question: And the “tolerance upon repeated administration” value (LPS-pretreated mice; i.t., LPS-pretreated mice)?
Answer: without signs of tolerance

Question: What about the “potency increase over 19-atom spacer homologue 3c” value (LPS-pretreated mice; i.t., LPS-pretreated mice, listed as MCC22) of the same compound?
Answer: at least 700 fold

Question: And the LPS-treated/control potency ratio (LPS-pretreated mice; i.t., listed as MCC22)?
Answer: 3070 and 3131

Question: What about the “ED50 potency ratio (β-FNA-treated/control)” value (LPS-pretreated mice; inflamed mice pretreated with β-FNA) of the same compound?
Answer: 96.6

Question: What about the “Relative Potency relative to a mixture of monovalent mu agonist (4) and CCR5 antagonist (2)” value (LPS-pretreated mice; mouse, in vivo) of the same compound?
Answer: ~3500

Question: What about the “potency relative to morphine or monovalent control ligand 4” value (LPS-pretreated mice; mouse, in vivo) of the same compound?
Answer: ~1500 fold

Question: And the “Relative Potency relative to a mixture of monovalent mu agonist (4) and CCR5 antagonist (2)” value (LPS-pretreated mice; mouse, in vivo, listed as MCC22)?
Answer: 3500

Question: And the “responses of WDR neuron evoked by 1.0 g (9.3 mN) von Frey filament” value (WDR neuron)?
Answer: significantly reduced responses

Question: What about the “attenuation of IL-6 secretion” value (IL-6; 200 nM, 3 hrs pretreatment, LPS 1 μg/ml overnight, microglial supernatant) of the same compound?
Answer: ~30%

Question: What about the “IL-6 secretion when combined with minocycline” value (IL-6; MCC22 combined with minocycline, LPS) of the same compound?
Answer: further attenuated
